Assays:
STAT3 protein [1] = target: T1, STAT3 protein (Homo sapiens, UniProt P40763); test: Western blotting of STAT3 degradation in Molm-16 cells; assay type: cell-based
STAT3 protein [2] = target: T1, STAT3 protein; test: Western blotting of STAT3 degradation in SU-DHL-1 cells; assay type: cell-based; conditions: SU-DHL-1 cells, ratio of DC50

T1 sequence (P40763 whole entry): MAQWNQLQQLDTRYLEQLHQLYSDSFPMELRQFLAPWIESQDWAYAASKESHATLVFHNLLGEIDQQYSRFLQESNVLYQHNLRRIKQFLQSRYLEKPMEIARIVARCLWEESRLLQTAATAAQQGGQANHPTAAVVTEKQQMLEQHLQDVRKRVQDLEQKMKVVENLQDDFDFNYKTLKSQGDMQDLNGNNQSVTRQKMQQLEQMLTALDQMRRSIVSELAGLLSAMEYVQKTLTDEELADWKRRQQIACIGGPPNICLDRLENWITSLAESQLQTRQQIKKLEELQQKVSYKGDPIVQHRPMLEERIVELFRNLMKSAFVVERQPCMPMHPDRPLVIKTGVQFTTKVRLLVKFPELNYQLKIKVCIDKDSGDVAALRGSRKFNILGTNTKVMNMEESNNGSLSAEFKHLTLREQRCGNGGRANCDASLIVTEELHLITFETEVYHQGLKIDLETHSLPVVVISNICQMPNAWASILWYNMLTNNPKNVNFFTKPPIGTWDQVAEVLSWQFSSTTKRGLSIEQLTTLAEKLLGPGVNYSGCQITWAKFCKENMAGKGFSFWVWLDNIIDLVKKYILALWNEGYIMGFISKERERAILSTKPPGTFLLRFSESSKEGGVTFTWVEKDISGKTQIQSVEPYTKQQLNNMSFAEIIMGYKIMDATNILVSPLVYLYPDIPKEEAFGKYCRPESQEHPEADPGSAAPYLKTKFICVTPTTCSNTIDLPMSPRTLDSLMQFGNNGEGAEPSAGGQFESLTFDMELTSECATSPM

Compound | times less potent than SD-36 in STAT3 degradation (STAT3 protein [1]; Molm-16 cells, ratio of DC50) | other results
NC(=O)CC[C@H](NC(=O)[C@@H]1CC[C@@H]2CCN(C(=O)CCCC#Cc3cccc4c3CN(C3CCC(=O)NC3=O)C4=O)C[C@H](NC(=O)c3cc4cc(C(F)(F)P(=O)(O)O)ccc4[nH]3)C(=O)N21)C(=O)NC(c1ccccc1)c1ccccc1 (stereo partly drawn) [Compound 12, ((2-(((5S,8S,10aR)-8-(((S)-5-Amino-1-(benzhydrylamino)-1,5-dioxopentan-2-yl)carbamoyl)-3-(6-(2-(2,6-dioxopiperidin-3-yl)-1-oxoisoindolin-4-yl)hex-5-ynoyl)-6-oxodecahydropyrrolo-[1,2-a][1,5]diazocin-5-yl)carbamoyl)-1H-indol-5-yl)-difluoromethyl)phosphonic Acid] |  | effect on the level of total STAT3 protein (STAT3 protein [1]; Molm-16, 4 h, concentrations up to 1 μM): no effect; effect on the level of pSTAT3^Y705 protein (STAT3 protein [1]; Molm-16, 4 h, up to / at 1 μM): only minimally
NC(=O)CC[C@H](NC(=O)[C@@H]1CC[C@@H]2CCN(C(=O)CCCCC#Cc3cccc4c3CN(C3CCC(=O)NC3=O)C4=O)C[C@H](NC(=O)c3cc4cc(C(F)(F)P(=O)(O)O)ccc4[nH]3)C(=O)N21)C(=O)NC(c1ccccc1)c1ccccc1 (stereo partly drawn) [Compound 13, ((2-(((5S,8S,10aR)-8-(((S)-5-Amino-1-(benzhydrylamino)-1,5-dioxopentan-2-yl)carbamoyl)-3-(7-(2-(2,6-dioxopiperidin-3-yl)-1-oxoisoindolin-4-yl)hept-6-ynoyl)-6-oxodecahydropyrrolo[1,2-a][1,5]diazocin-5-yl)carbamoyl)-1H-indol-5-yl)difluoromethyl)phosphonic Acid] |  | times more potent than 12 in STAT3 degradation (STAT3 protein [1]; Molm-16 cells, ratio of DC50): 10 times
NC(=O)CC[C@H](NC(=O)[C@@H]1CC[C@@H]2CCN(C(=O)CCCCCCCCC#Cc3cccc4c3CN(C3CCC(=O)NC3=O)C4=O)C[C@H](NC(=O)c3cc4cc(C(F)(F)P(=O)(O)O)ccc4[nH]3)C(=O)N21)C(=O)NC(c1ccccc1)c1ccccc1 (stereo partly drawn) [Compound 16, ((2-(((5S,8S,10aR)-8-(((S)-5-Amino-1-(benzhydrylamino)-1,5-dioxopentan-2-yl)carbamoyl)-3-(11-(2-(2,6-dioxopiperidin-3-yl)-1-oxoisoindolin-4-yl)undec-10-ynoyl)-6-oxodecahydropyrrolo[1,2-a][1,5]diazocin-5-yl)carbamoyl)-1H-indol-5-yl)difluoromethyl)phosphonic Acid] | 2–3 times | 
NC(=O)CC[C@H](NC(=O)[C@@H]1CC[C@@H]2CCN(C(=O)OCCCCC#Cc3cccc4c3CN(C3CCC(=O)NC3=O)C4=O)C[C@H](NC(=O)c3cc4cc(C(F)(F)P(=O)(O)O)ccc4[nH]3)C(=O)N21)C(=O)NC(c1ccccc1)c1ccccc1 (stereo partly drawn) [Compound 18, ((2-(((5S,8S,10aR)-8-(((S)-5-Amino-1-(benzhydrylamino)-1,5-dioxopentan-2-yl)carbamoyl)-3-(((6-(2-(2,6-dioxopiperidin-3-yl)-1-oxoisoindolin-4-yl)hex-5-yn-1-yl)oxy)carbonyl)-6-oxodecahydropyrrolo[1,2-a][1,5]diazocin-5-yl)carbamoyl)-1H-indol-5-yl)difluoromethyl)phosphonic Acid] |  | times less potent than SD-36 in STAT3 degradation (STAT3 protein [2]): 2 times
NC(=O)CC[C@H](NC(=O)[C@@H]1CC[C@@H]2CCN(C(=O)c3cnn(CCCC#Cc4cccc5c4CN(C4CCC(=O)NC4=O)C5=O)c3)C[C@H](NC(=O)c3cc4cc(C(F)(F)P(=O)(O)O)ccc4[nH]3)C(=O)N21)C(=O)NC(c1ccccc1)c1ccccc1 (stereo partly drawn) [Compound 20, ((2-(((5S,8S,10aR)-8-(((S)-5-Amino-1-(benzhydrylamino)-1,5-dioxopentan-2-yl)carbamoyl)-3-(1-(5-(2-(2,6-dioxopiperidin-3-yl)-1-oxoisoindolin-4-yl)pent-4-yn-1-yl)-1H-pyrazole-4-carbonyl)-6-oxodecahydropyrrolo[1,2-a][1,5]diazocin-5-yl)-carbamoyl)-1H-indol-5-yl)difluoromethyl)phosphonic Acid] | 3–4 times | 
NC(=O)CC[C@H](NC(=O)[C@@H]1CC[C@@H]2CCN(C(=O)CCCn3cc(C#Cc4cccc5c4CN(C4CCC(=O)NC4=O)C5=O)cn3)C[C@H](NC(=O)c3cc4cc(C(F)(F)P(=O)(O)O)ccc4[nH]3)C(=O)N21)C(=O)NC(c1ccccc1)c1ccccc1 (stereo partly drawn) [Compound 21, ((2-(((5S,8S,10aR)-8-(((S)-5-Amino-1-(benzhydrylamino)-1,5-dioxopentan-2-yl)carbamoyl)-3-(4-(4-((2-(2,6-dioxopiperidin-3-yl)-1-oxoisoindolin-4-yl)ethynyl)-1H-pyrazol-1-yl)butanoyl)-6-oxodecahydropyrrolo[1,2-a][1,5]diazocin-5-yl)carbamoyl)-1H-indol-5-yl)difluoromethyl)phosphonic Acid] | 3–4 times | 
NC(=O)CC[C@H](NC(=O)[C@@H]1CC[C@@H]2CCN(C(=O)N3CCC(CCC#Cc4cccc5c4CN(C4CCC(=O)NC4=O)C5=O)CC3)C[C@H](NC(=O)c3cc4cc(C(F)(F)P(=O)(O)O)ccc4[nH]3)C(=O)N21)C(=O)NC(c1ccccc1)c1ccccc1 (stereo partly drawn) [Compound 22, ((2-(((5S,8S,10aR)-8-(((S)-5-Amino-1-(benzhydrylamino)-1,5-dioxopentan-2-yl)carbamoyl)-3-(4-(4-(2-(2,6-dioxopiperidin-3-yl)-1-oxoisoindolin-4-yl)but-3-yn-1-yl)piperidine-1-carbon-yl)-6-oxodecahydropyrrolo[1,2-a][1,5]diazocin-5-yl)-carbamoyl)-1H-indol-5-yl)difluoromethyl)phosphonic Acid] | 3 times | 
NC(=O)CC[C@H](NC(=O)[C@@H]1CC[C@@H]2CCN(C(=O)CCN3CCC(C#Cc4cccc5c4CN(C4CCC(=O)NC4=O)C5=O)CC3)C[C@H](NC(=O)c3cc4cc(C(F)(F)P(=O)(O)O)ccc4[nH]3)C(=O)N21)C(=O)NC(c1ccccc1)c1ccccc1 (stereo partly drawn) [Compound 23, ((2-(((5S,8S,10aR)-8-(((S)-5-Amino-1-(benzhydrylamino)-1,5-dioxopentan-2-yl)carbamoyl)-3-(3-(4-((2-(2,6-dioxopiperidin-3-yl)-1-oxoisoindolin-4-yl)ethynyl)piperidin-1-yl)propanoyl)-6-oxodecahydropyrrolo[1,2-a][1,5]diazocin-5-yl)carbamoyl)-1H-indol-5-yl)difluoromethyl)phosphonic Acid] | 40 times | 
NC(=O)CC[C@H](NC(=O)[C@@H]1CC[C@@H]2CCN(C(=O)CC(=O)N3CCC(C#Cc4cccc5c4CN(C4CCC(=O)NC4=O)C5=O)CC3)C[C@H](NC(=O)c3cc4cc(C(F)(F)P(=O)(O)O)ccc4[nH]3)C(=O)N21)C(=O)NC(c1ccccc1)c1ccccc1 (stereo partly drawn) [Compound 24, ((2-(((5S,8S,10aR)-8-(((S)-5-Amino-1-(benzhydrylamino)-1,5-dioxopentan-2-yl)carbamoyl)-3-(3-(4-((2-(2,6-dioxopiperidin-3-yl)-1-oxoisoindolin-4-yl)ethynyl)piperidin-1-yl)-3-oxopropanoyl)-6-oxodecahydropyrrolo[1,2-a][1,5]diazocin-5-yl)-carbamoyl)-1H-indol-5-yl)difluoromethyl)phosphonic Acid] | 6 times | 
NC(=O)CC[C@H](NC(=O)[C@@H]1CC[C@@H]2CCN(C(=O)CCCCCCCc3cccc4c3CN(C3CCC(=O)NC3=O)C4=O)C[C@H](NC(=O)c3cc4cc(C(F)(F)P(=O)(O)O)ccc4[nH]3)C(=O)N21)C(=O)NC(c1ccccc1)c1ccccc1 (stereo partly drawn) [Compound 25, ((2-(((5S,8S,10aR)-8-(((S)-5-Amino-1-(benzhydrylamino)-1,5-dioxopentan-2-yl)carbamoyl)-3-(8-(2-(2,6-dioxopiperidin-3-yl)-1-oxoisoindolin-4-yl)octanoyl)-6-oxodecahydropyrrolo-[1,2-a][1,5]diazocin-5-yl)-carbamoyl)-1H-indol-5-yl)-difluoromethyl)phosphonic Acid] | 2–3 times | 
NC(=O)CC[C@H](NC(=O)[C@@H]1CC[C@@H]2CCN(C(=O)CCCCCCNc3cccc4c3CN(C3CCC(=O)NC3=O)C4=O)C[C@H](NC(=O)c3cc4cc(C(F)(F)P(=O)(O)O)ccc4[nH]3)C(=O)N21)C(=O)NC(c1ccccc1)c1ccccc1 (stereo partly drawn) [Compound 26, ((2-(((5S,8S,10aR)-8-(((S)-5-Amino-1-(benzhydrylamino)-1,5-dioxopentan-2-yl)carbamoyl)-3-(7-((2-(2,6-dioxopiperidin-3-yl)-1-oxoisoindolin-4-yl)amino)heptanoyl)-6-oxodecahydropyrrolo[1,2-a][1,5]diazocin-5-yl)carbamoyl)-1H-indol-5-yl)difluoromethyl)phosphonic Acid] | 2–3 times | 
NC(=O)CC[C@H](NC(=O)[C@@H]1CC[C@@H]2CCN(C(=O)CCCCCC#Cc3ccc4c(c3)CN(C3CCC(=O)NC3=O)C4=O)C[C@H](NC(=O)c3cc4cc(C(F)(F)P(=O)(O)O)ccc4[nH]3)C(=O)N21)C(=O)NC(c1ccccc1)c1ccccc1 (stereo partly drawn) [Compound 28, ((2-(((5S,8S,10aR)-8-(((S)-5-Amino-1-(benzhydrylamino)-1,5-dioxopentan-2-yl)carbamoyl)-3-(8-(2-(2,6-dioxopiperidin-3-yl)-1-oxoisoindolin-5-yl)oct-7-ynoyl)-6-oxodecahydropyrrolo-[1,2-a][1,5]diazocin-5-yl)carbamoyl)-1H-indol-5-yl)difluoromethyl)phosphonic Acid] | 5–10 times | 
NC(=O)CC[C@H](NC(=O)[C@@H]1CC[C@@H]2CCN(C(=O)CCCCCC#Cc3ccc4c(c3)C(=O)N(C3CCC(=O)NC3=O)C4)C[C@H](NC(=O)c3cc4cc(C(F)(F)P(=O)(O)O)ccc4[nH]3)C(=O)N21)C(=O)NC(c1ccccc1)c1ccccc1 (stereo partly drawn) [Compound 29, ((2-(((5S,8S,10aR)-8-(((S)-5-Amino-1-(benzhydrylamino)-1,5-dioxopentan-2-yl)carbamoyl)-3-(8-(2-(2,6-dioxopiperidin-3-yl)-3-oxoisoindolin-5-yl)oct-7-ynoyl)-6-oxodecahydropyrrolo-[1,2-a][1,5]diazocin-5-yl)carbamoyl)-1H-indo 1–5-yl)difluoromethyl)phosphonic Acid] | 5–10 times | 
